The text below walks through data of ChEMBL document CHEMBL1124165, “1-(2,3-Anhydro-beta-D-lyxofuranosyl)cytosine derivatives as potential inhibitors of the human immunodeficiency virus” (J Med Chem, 1988).

Molecules are shown by their SMILES.

The first assay relates to ATH-8 cell line. The assay can be described thus: Tested in vitro for concentration with significant protective effect on ATH8 cells exposed to HIV; No significant effect at concentrations 100 uM. Particulars: Homo sapiens. Format: functional, cell-based.
With `CNc1ccn([C@@H]2O[C@H](CO)[C@H]3OC23)c(=O)n1` (some centres undefined), the Concentration result was “No significant effect at concentrations 100 uM”.
Same read-out and setting: with `COc1ccn([C@@H]2O[C@H](CO)[C@H]3OC23)c(=O)n1` (some centres undefined) the entry was “No significant effect at concentrations 100 uM”; with `O=c1nc(NO)ccn1[C@@H]1O[C@H](CO)[C@H]2OC12` (some centres undefined), “No significant effect at concentrations 100 uM”; with `O=c1ccn([C@@H]2O[C@H](CO)[C@H]3OC23)c(=O)[nH]1` (some centres undefined), “No significant effect at concentrations 100 uM”.
On the same count and under the same terms, with `C[C@H]1[C@H](O)[C@H](n2ccc(=O)[nH]c2=O)O[C@@H]1CO` the entry was “No significant effect at concentrations 100 uM”; with `[N-]=[N+]=N[C@@H]1C(O)[C@H](n2ccc(N)nc2=O)O[C@@H]1CO` (some centres undefined), “No significant effect at concentrations 100 uM”; with `Cc1cn([C@@H]2O[C@H](CO)C[C@@H]2O)c(=O)[nH]c1=O`, “No significant effect at concentrations 100 uM”.
Still for that read-out and setting: with `Cc1cn([C@@H]2O[C@H](CO)[C@H]3OC23)c(=O)[nH]c1=O` (some centres undefined) the entry was “No significant effect at concentrations 100 uM”; with `Cc1cn([C@@H]2O[C@H](CO)[C@H](N=[N+]=[N-])C2O)c(=O)[nH]c1=O` (some centres undefined), “No significant effect at concentrations 100 uM”.
As for `Nc1ccn([C@@H]2O[C@H](CO)C[C@@H]2O)c(=O)n1`, the Concentration entry was “No significant effect at concentrations 100 uM”.
Turning to `[N-]=[N+]=N[C@@H]1C(O)[C@H](n2ccc(=O)[nH]c2=O)O[C@@H]1CO` (some centres undefined), the Concentration entry was “No significant effect at concentrations 100 uM”.
The same measure, in the same setting: the result for `O=c1[nH]c(=O)n([C@@H]2O[C@H](CO)[C@H]3OC23)cc1Br` (some centres undefined) reads “No significant effect at concentrations 100 uM”.

The subject of another assay is ATH-8 cell line. The assay can be described thus: Tested in vitro for concentration with significant protective effect on ATH8 cells exposed to HIV. Particulars: Homo sapiens. Format: functional, cell-based.
For `Nc1ccn([C@@H]2O[C@H](CO)[C@H]3OC23)c(=O)n1` (some centres undefined), the Concentration amounted to 5 µM.

For a further assay, the species on record is Homo sapiens. The assay can be described thus: Tested in vitro for concentration with significant protective effect on CD4+ cells exposed to HIV. Format: functional.
Details: not given
For `Nc1ccn([C@@H]2O[C@H](CO)[C@H]3OC23)c(=O)n1` (some centres undefined), the Concentration is 5 µM.
